From article PMC10017709, “Structural basis of selective cannabinoid CB2 receptor activation” (Nature Communications, 2023)
Where “and” joins values, the source holds several entries; their conditions need not be identical. Equal values may be shown once. Read-outs that look alike come from different tables or passages of the source.

Assays:
hCB2R [1] = target: T1, hCB2R (Homo sapiens, UniProt P34972); experiment: [3H]RO6957022 displacement assay; format: binding; details: individual replicates
T1 construct: host or cells: CHO-K1 (CHOK1_hCB2bgal, PathHunter), membranes
T1 sequence (P34972 whole entry): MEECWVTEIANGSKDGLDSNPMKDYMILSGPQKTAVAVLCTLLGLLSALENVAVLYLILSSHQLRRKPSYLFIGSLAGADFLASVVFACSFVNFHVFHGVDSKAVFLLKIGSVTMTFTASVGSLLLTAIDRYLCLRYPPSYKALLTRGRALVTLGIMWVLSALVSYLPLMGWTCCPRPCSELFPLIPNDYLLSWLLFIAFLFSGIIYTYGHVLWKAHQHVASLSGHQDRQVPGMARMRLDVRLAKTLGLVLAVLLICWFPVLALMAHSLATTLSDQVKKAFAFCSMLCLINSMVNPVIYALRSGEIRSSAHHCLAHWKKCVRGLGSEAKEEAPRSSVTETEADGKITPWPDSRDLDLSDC

hCB2R [2] = target: T1, hCB2R; experiment: [3H]RO6957022 competition association assay; format: binding; details: for percentage specific [3H]RO6957022 binding (competition association): individual replicates
CB2R WT = CB2R WT (Homo sapiens, UniProt P34972); experiment: [35S]GTPγS G protein activation assay, CB2R WT; format: biochemical; details: for Emax: CB2R WT, read-out: Emax (%); for [35S]GTPγS binding, percentage of WT / [35S]GTPγS binding, percentage of CP55,940: individual replicates
Chain of CB2R WT (P34972 whole entry): as above

CB2R-L185^ECL2H = CB2R-L185^ECL2H (Homo sapiens, UniProt P34972, L185H); experiment: [35S]GTPγS assay, CB2R L185H mutant; format: biochemical; details: L185H mutant; at 10 µM compared to WT; read-out: Emax (%)
Chain of CB2R-L185^ECL2H (P34972 whole entry L185H): as the sequence (P34972 whole entry) above, with L185H counted along it

CB2R-L182^ECL2I = CB2R-L182^ECL2I (Homo sapiens, UniProt P34972, L182I); experiment: [35S]GTPγS assay, CB2R L182I mutant; format: biochemical; details: L182I mutant; at 10 µM compared to WT; read-out: Emax (%)
Chain of CB2R-L182^ECL2I (P34972 whole entry L182I): as the sequence (P34972 whole entry) above, with L182I counted along it

CB2R-E181^ECL2D = CB2R-E181^ECL2D (Homo sapiens, UniProt P34972, E181D); experiment: [35S]GTPγS assay, CB2R E181D mutant; format: biochemical; details: E181D mutant; at 10 µM compared to WT; read-out: Emax (%)
Chain of CB2R-E181^ECL2D (P34972 whole entry E181D): as the sequence (P34972 whole entry) above, with E181D counted along it

CB2R-Quadruple^TM1,7 = CB2R-Quadruple^TM1,7 (Homo sapiens, UniProt P34972, C40S/K279T/K33Q/V36I); experiment: [35S]GTPγS assay, CB2R quadruple mutant; format: biochemical; details: for [35S]GTPγS binding, percentage of WT: QuadrupleTM1,7, individual replicates
Chain of CB2R-Quadruple^TM1,7 (P34972 whole entry K33Q/V36I/C40S/K279T): as the sequence (P34972 whole entry) above, with K33Q, V36I, C40S, K279T counted along it

CB1R QuadrupleTM1,7 = experiment: [35S]GTPγS assay, CB1R quadruple mutant; format: biochemical, human

## CCCCC/C=C\C/C=C\C/C=C\C/C=C\CCCC(=O)NCCO [AEA, anandamide]
hCB2R [1]; log [agonist] (M) -5
  percentage specific [3H]RO6957022 binding (displacement): 3.79% and 18.06% and 16.04%
hCB2R [1]; log [agonist] (M) -6
  percentage specific [3H]RO6957022 binding (displacement): 47.48% and 65.38% and 68.38%
hCB2R [1]; log [agonist] (M) -7
  percentage specific [3H]RO6957022 binding (displacement): 87.86% and 102.56% and 105.31%
hCB2R [1]; log [agonist] (M) -8
  percentage specific [3H]RO6957022 binding (displacement): 101.15% and 95.97% and 108.64%
hCB2R [2]; Time 1 min
  percentage specific [3H]RO6957022 binding (competition association): 4.42% and 11.28% and 5.44%
hCB2R [2]; Time 3 min
  percentage specific [3H]RO6957022 binding (competition association): 16.17% and 23.05% and 21.34%
hCB2R [2]; Time 5 min
  percentage specific [3H]RO6957022 binding (competition association): 26.28% and 26.79% and 25.51%
hCB2R [2]; Time 7 min
  percentage specific [3H]RO6957022 binding (competition association): 34.14% and 35.42% and 31.98%
hCB2R [2]; Time 10 min
  percentage specific [3H]RO6957022 binding (competition association): 34.18% and 41.87% and 46.59%
hCB2R [2]; Time 20 min
  percentage specific [3H]RO6957022 binding (competition association): 41.44% and 51.99% and 48.92%
hCB2R [2]; Time 30 min
  percentage specific [3H]RO6957022 binding (competition association): 50.41% and 53.24% and 59.83%
hCB2R [2]; Time 45 min
  percentage specific [3H]RO6957022 binding (competition association): 45.80% and 66.77% and 61.94%
hCB2R [2]; Time 60 min
  percentage specific [3H]RO6957022 binding (competition association): 54.67% and 64.58% and 70.00%
hCB2R [2]; Time 90 min
  percentage specific [3H]RO6957022 binding (competition association): 60.96% and 62.48% and 62.68%
hCB2R [2]; Time 120 min
  percentage specific [3H]RO6957022 binding (competition association): 62.19% and 63.42% and 54.77%
hCB2R [2]; at 1 µM agonist, ET = 1/(kon ∙ 1 × 10-6)
  ET (engagement time): 152 s and 152 ± 10.4 s
CB2R WT; maximum effect at 10 µM compared to WT (Suppl. Table 6)
  Emax: 106 ± 7%
CB2R WT; maximum effect compared to CP55,940
  Emax: 60 ± 5%
CB2R WT; log [ligand] (M) -5
  [35S]GTPγS binding, percentage of WT: 119.90 percentage of WT and 99.77 percentage of WT and 99.12 percentage of WT
CB2R WT; log [ligand] (M) -6
  [35S]GTPγS binding, percentage of WT: 73.32 percentage of WT and 72.65 percentage of WT and 56.56 percentage of WT
CB2R WT; log [ligand] (M) -7
  [35S]GTPγS binding, percentage of WT: 21.64 percentage of WT and 23.33 percentage of WT and 32.57 percentage of WT
CB2R WT; log [ligand] (M) -8
  [35S]GTPγS binding, percentage of WT: 2.55 percentage of WT and 4.67 percentage of WT and 26.67 percentage of WT
CB2R WT; log [agonist] (M) -5
  [35S]GTPγS binding, percentage of CP55,940: 55.30% and 54.57% and 71.23%
CB2R WT; log [agonist] (M) -6
  [35S]GTPγS binding, percentage of CP55,940: 33.82% and 39.74% and 40.65%
CB2R WT; log [agonist] (M) -7
  [35S]GTPγS binding, percentage of CP55,940: 9.98% and 12.76% and 23.41%
CB2R WT; log [agonist] (M) -8
  [35S]GTPγS binding, percentage of CP55,940: 1.18% and 2.55% and 19.17%
CB2R-L185^ECL2H
  Emax: 210 ± 61%
CB2R-L182^ECL2I
  Emax: 5 ± 17%
CB2R-E181^ECL2D
  Emax: 14 ± 5%
CB2R-Quadruple^TM1,7; Quadruple TM1,7 mutant, at 10 µM compared to WT, read-out: Emax (%)
  Emax: 24 ± 7%
CB2R-Quadruple^TM1,7; log [ligand] (M) -5
  [35S]GTPγS binding, percentage of WT: 32.30 percentage of WT and 9.42 percentage of WT and 29.02 percentage of WT
CB2R-Quadruple^TM1,7; log [ligand] (M) -6
  [35S]GTPγS binding, percentage of WT: -7.36 percentage of WT and -10.83 percentage of WT and 27.74 percentage of WT
CB2R-Quadruple^TM1,7; log [ligand] (M) -7
  [35S]GTPγS binding, percentage of WT: -34.86 percentage of WT and -19.55 percentage of WT and 15.75 percentage of WT
CB2R-Quadruple^TM1,7; log [ligand] (M) -8
  [35S]GTPγS binding, percentage of WT: 9.32 percentage of WT and -29.85 percentage of WT and 11.86 percentage of WT
CB1R QuadrupleTM1,7
  Agonist-mediated activation: 1.6 ± 0.1 fold over its basal
